Patent US20250163104A1, “MACROCYCLIC IMMUNOMODULATORS” (priority 2021, published 2025)
Where a SMILES comes first, the peptide text is derived from it. Bridges are numbered along the chain shown (N, C = ends). [ ]: non-standard residue; d: D form. The star is where a group is joined. ξ: configuration not given here. Ala(indol-4-yl) = N[C@@H](Cc1cccc2[nH]ccc12)C(=O)O; Phe(3-CF3) = N[C@@H](Cc1cccc(C(F)(F)F)c1)C(=O)O; Ala(morpholin-4-yl) = N[C@@H](CN1CCOCC1)C(=O)O; Phe(4-COOH) = N[C@@H](Cc1ccc(C(=O)O)cc1)C(=O)O; Bip = N[C@@H](Cc1ccc(-c2ccccc2)cc1)C(=O)O; Phe(4-CN) = N#Cc1ccc(C[C@H](N)C(=O)O)cc1; Phe(3-Me) = Cc1cccc(C[C@H](N)C(=O)O)c1; Val(3-OH) = CC(C)(O)[C@H](N)C(=O)O; mTyr = N[C@@H](Cc1cccc(O)c1)C(=O)O; Cha = N[C@@H](CC1CCCCC1)C(=O)O; Cit = NC(=O)NCCC[C@H](N)C(=O)O; Thr(3ξ) = CC(O)[C@H](N)C(=O)O; Carboxymethyl = O=C(O)C*; Nle = CCCC[C@H](N)C(=O)O; Orn = NCCC[C@H](N)C(=O)O; Dab = NCC[C@H](N)C(=O)O; Dap = NC[C@H](N)C(=O)O

molecular target: T1, human PD-1 / PD-L1-Ig binding on Jurkat cell line over-expressing human PD-1 (Jurkat-PD-1) (Homo sapiens, UniProt Q15116); assay: Jurkat-PD-1 Cell Binding High-Content Screening Assay (CBA); format: cell-based; details: Jurkat HPD1_PDL1 IC50, Jurkat-PD-1 cells, PE-labeled PD-L1-Ig 20 nM final
T1 construct: expressed in transfected cells; host or cells: Jurkat
T1 sequence (Q15116 25-288): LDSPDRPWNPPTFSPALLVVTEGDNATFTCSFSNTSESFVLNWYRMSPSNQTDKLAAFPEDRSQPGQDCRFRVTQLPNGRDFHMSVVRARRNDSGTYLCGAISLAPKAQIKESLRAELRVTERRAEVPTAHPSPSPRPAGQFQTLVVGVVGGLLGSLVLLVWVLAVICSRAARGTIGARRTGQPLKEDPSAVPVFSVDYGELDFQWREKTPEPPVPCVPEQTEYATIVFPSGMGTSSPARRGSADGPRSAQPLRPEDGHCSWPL
In short: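 Jurkat-hPD-1 cells in DMEM with 10% fetal calf serum receive test compound and are held at 37° C for 2 h. PE-labeled PD-L1-Ig is added at 20 nM final and left for 1 hour. Cells are then fixed and Hoechst-stained, and binding is measured by imaging.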

| SMILES | IC50 [nM] |
| --- | --- |
| CC[C@H](C)[C@@H]1NC(=O)[C@H](Cc2ccc(-c3ccccc3)cc2)NC(=O)[C@H](C(C)C)NC(=O)[C@H](Cc2c[nH]c3ccccc23)NC(=O)[C@H](CC(=O)O)NC(=O)[C@H](Cc2ccncc2)NC(=O)[C@H](Cc2ccc(OCC(=O)O)cc2)NC(=O)CSC[C@@H](C(=O)N[C@@H](C)C(N)=O)NC(=O)[C@H]([C@@H](C)O)NC(=O)[C@H](C(C)C)NC(=O)[C@H](CC2CCCCC2)NC(=O)[C@H](Cc2c[nH]cn2)NC(=O)[C@@H](CC(C)C)NC(=O)[C@H](CCCN)NC1=O [Compound 1604] | 45.8 |

same assay, conditions: Jurkat-PD-1 cells, PE-labeled PD-L1-Ig 20 nM final; read-out: Jurkat HPD1_PDL1 IC50

| SMILES | IC50 [nM] |
| --- | --- |
| CCCC[C@@H]1NC(=O)[C@H](CCN)NC(=O)[C@@H](CC(C)C)NC(=O)[C@H](CCCN)NC(=O)[C@H](CCCNC(N)=O)NC(=O)[C@H](Cc2ccc(-c3ccccc3)cc2)NC(=O)[C@H](CC(C)C)NC(=O)[C@H](Cc2cccc(C)c2)NC(=O)[C@H](CC(=O)O)NC(=O)[C@H](Cc2ccc(OCC(=O)O)cc2)NC(=O)[C@H](CN)NC(=O)CSC[C@@H](C(=O)N[C@@H](C)C(N)=O)NC(=O)[C@H]([C@@H](C)O)NC(=O)[C@H](C(C)C)NC1=O [Compound 1295] ({CH2CO}-[Dap]Y(Carboxymethyl)D[Phe(3-Me)]L[Bip][Cit][Orn][dL][Dab][Nle]VTCA-NH2; thioether N-14) | 9.8 |
| CCCC[C@@H]1NC(=O)[C@H](CCN)NC(=O)[C@@H](CC(C)C)NC(=O)[C@H](CCCN)NC(=O)[C@H](C(C)C)NC(=O)[C@H](Cc2ccc(-c3ccccc3)cc2)NC(=O)[C@H](CC(C)C)NC(=O)[C@H](Cc2c[nH]c3ccccc23)NC(=O)[C@H](CC(=O)O)NC(=O)[C@H](Cc2ccc(OCC(=O)O)cc2)NC(=O)[C@H](Cc2ccc(OCC(=O)O)cc2)NC(=O)CSC[C@@H](C(=O)NCC(N)=O)NC(=O)[C@H](CO)NC(=O)[C@H](C(C)C)NC1=O [Compound 1409] ({CH2CO}-Y(Carboxymethyl)Y(Carboxymethyl)DWL[Bip]V[Orn][dL][Dab][Nle]VSCG-NH2; thioether N-14) | 16.8 |
| Cc1cccc(C[C@@H]2NC(=O)[C@H](CC(=O)O)NC(=O)[C@H](Cc3ccc(C(=O)O)cc3)NC(=O)[C@H](C(C)O)NC(=O)CSC[C@@H](C(=O)N[C@@H](CCN)C(N)=O)NC(=O)[C@H](Cc3cnc[nH]3)NC(=O)[C@H](C(C)(C)O)NC(=O)[C@H](CC3CCCCC3)NC(=O)[C@H](CCN)NC(=O)[C@@H](CC(C)C)NC(=O)[C@H](CCCN)NC(=O)[C@H](Cc3ccc(OCC(=O)O)cc3)NC(=O)[C@H](Cc3ccc(-c4ccccc4)cc3)NC(=O)[C@H](Cc3ccc(OCC(=O)O)cc3)NC2=O)c1 (stereo partly drawn) [Compound 2683] ({CH2CO}-[Thr(3ξ)][Phe(4-COOH)]D[Phe(3-Me)]Y(Carboxymethyl)[Bip]Y(Carboxymethyl)[Orn][dL][Dab][Cha][Val(3-OH)]HC[Dab]-NH2; thioether N-14) | 1.9 |
| CC[C@H](C)[C@@H]1NC(=O)[C@H](Cc2ccc(-c3ccccc3)cc2)NC(=O)[C@H](C(C)C)NC(=O)[C@H](Cc2c[nH]c3ccccc23)NC(=O)[C@H](CC(=O)O)NC(=O)[C@H](Cc2ccc(OCC(=O)O)cc2)NC(=O)[C@H](CN)NC(=O)CSC[C@@H](C(=O)N[C@@H](C)C(N)=O)NC(=O)[C@H]([C@@H](C)O)NC(=O)[C@H](C(C)C)NC(=O)[C@H](CC(C)C)NC(=O)[C@H](CCN)NC(=O)[C@@H](CC(C)C)NC(=O)[C@H](CCCN)NC1=O [Compound 1054] ({CH2CO}-[Dap]Y(Carboxymethyl)DWV[Bip]I[Orn][dL][Dab]LVTCA-NH2; thioether N-14) | 9 |
| CC(C)C[C@H]1NC(=O)[C@H](CCCN)NC(=O)[C@H](Cc2ccc(C(=O)O)cc2)NC(=O)[C@H](Cc2ccc(-c3ccccc3)cc2)NC(=O)[C@H](Cc2cccc3[nH]ccc23)NC(=O)[C@H](Cc2cccc(C(F)(F)F)c2)NC(=O)[C@H](CC(=O)O)NC(=O)[C@H](Cc2ccc(C(=O)O)cc2)NC(=O)[C@H](CN2CCOCC2)NC(=O)CSC[C@@H](C(=O)N[C@@H](CCN)C(N)=O)NC(=O)[C@H](CCC(=O)O)NC(=O)[C@H](C(C)C)NC(=O)[C@H](CC2CCCCC2)NC(=O)[C@H](CCN)NC1=O [Example 2742] ({CH2CO}-[Ala(morpholin-4-yl)][Phe(4-COOH)]D[Phe(3-CF3)][Ala(indol-4-yl)][Bip][Phe(4-COOH)][Orn][dL][Dab][Cha]VEC[Dab]-NH2; thioether N-14) | 4.6 |

The next lines start with the values.

| IC50 [nM] | SMILES |
| --- | --- |
| 858 | CC(C)C[C@H]1NC(=O)[C@H](CCCN)NC(=O)[C@H](CCCNC(N)=O)NC(=O)[C@H](Cc2ccc(-c3ccccc3)cc2)NC(=O)[C@H](C(C)C)NC(=O)[C@H](Cc2c[nH]c3ccccc23)NC(=O)[C@H](CC(=O)O)NC(=O)[C@H](Cc2ccc(OCC(=O)O)cc2)NC(=O)[C@H](CN)NC(=O)CSC[C@@H](C(=O)N[C@@H](C)C(N)=O)NC(=O)[C@H]([C@@H](C)O)NC(=O)[C@H](C(C)C)NC(=O)[C@H](Cc2ccc(C#N)cc2)NC(=O)[C@H](CCN)NC1=O [Compound 1366] ({CH2CO}-[Dap]Y(Carboxymethyl)DWV[Bip][Cit][Orn][dL][Dab][Phe(4-CN)]VTCA-NH2; thioether N-14) |
| 65.2 | CC(C)C[C@H]1NC(=O)[C@H](CCCN)NC(=O)[C@H](CCCNC(N)=O)NC(=O)[C@H](Cc2ccc(-c3ccccc3)cc2)NC(=O)[C@H](C(C)C)NC(=O)[C@H](Cc2c[nH]c3ccccc23)NC(=O)[C@H](CC(=O)O)NC(=O)[C@H](Cc2ccc(C(=O)c3ccccc3)cc2)NC(=O)[C@H](CN)NC(=O)CSC[C@@H](C(=O)N[C@@H](C)C(N)=O)NC(=O)[C@H]([C@@H](C)O)NC(=O)[C@H](C(C)C)NC(=O)[C@H](CC2CCCCC2)NC(=O)[C@H](CCN)NC1=O [Compound 2132] |
| 7.8 | CC(C)C[C@H]1NC(=O)[C@H](CCCN)NC(=O)[C@H](C(C)C)NC(=O)[C@H](Cc2ccc(-c3ccccc3)cc2)NC(=O)[C@H](C(C)C)NC(=O)[C@H](Cc2c[nH]c3ccccc23)NC(=O)[C@H](CC(=O)O)NC(=O)[C@H](Cc2ccc(C(=O)O)cc2)NC(=O)[C@H](Cc2ccc(OCC(=O)O)cc2)NC(=O)CSC[C@@H](C(=O)N[C@@H](C)C(N)=O)NC(=O)[C@H](Cc2cnc[nH]2)NC(=O)[C@H](C(C)C)NC(=O)[C@H](CC2CCCCC2)NC(=O)[C@H](CCN)NC1=O [Compound 1751] ({CH2CO}-Y(Carboxymethyl)[Phe(4-COOH)]DWV[Bip]V[Orn][dL][Dab][Cha]VHCA-NH2; thioether N-14) |
| 120 | CC(C)C[C@H]1NC(=O)[C@H](CCCN)NC(=O)[C@H](CCC(=O)O)NC(=O)[C@H](Cc2ccc(-c3ccccc3)cc2)NC(=O)[C@H](C(C)C)NC(=O)[C@H](Cc2c[nH]c3ccccc23)NC(=O)[C@H](CC(=O)O)NC(=O)[C@H](Cc2ccc(OCC(=O)O)cc2)NC(=O)[C@H](CN)NC(=O)CSC[C@@H](C(=O)N[C@@H](C)C(N)=O)NC(=O)[C@H]([C@@H](C)O)NC(=O)[C@H](C(C)C)NC(=O)[C@H](Cc2cccc(O)c2)NC(=O)[C@H](CCN)NC1=O [Compound 1475] ({CH2CO}-[Dap]Y(Carboxymethyl)DWV[Bip]E[Orn][dL][Dab][mTyr]VTCA-NH2; thioether N-14) |
| 7.4 | CC(C)C[C@@H]1NC(=O)[C@H](Cc2c[nH]c3ccccc23)NC(=O)[C@H](CC(=O)O)NC(=O)[C@H](Cc2ccc(C(=O)O)cc2)NC(=O)[C@H](Cc2ccc(OCC(=O)O)cc2)NC(=O)CSC[C@@H](C(=O)NCC(N)=O)NC(=O)[C@H](CO)NC(=O)[C@H](C(C)C)NC(=O)[C@H](CC2CCCCC2)NC(=O)[C@H](CCN)NC(=O)[C@@H](CC(C)C)NC(=O)[C@H](CCCN)NC(=O)[C@H](C(C)C)NC(=O)[C@H](Cc2ccc(-c3ccccc3)cc2)NC1=O [Compound 1405] ({CH2CO}-Y(Carboxymethyl)[Phe(4-COOH)]DWL[Bip]V[Orn][dL][Dab][Cha]VSCG-NH2; thioether N-14) |
